Results reported in patent US20020061866A1, “Pharmaceutical compositions comprising in combination a bisphosphonate and a matrix metalloproteinase inhibitor” (priority 1999, published 2002).
Where “and” joins values, the source holds several entries; their conditions need not be identical. Equal entries are not always repeated.

Legend:
[1] = system: MMP-2 production and secretion by PC-3 ML cells; settings: in vitro and in vivo; cited from earlier work
[2] = system: human PC-3 ML prostatic cancer subclones; settings: pretreatment of SCID mice; cited from earlier work
[3] = system: human estrogen-independent breast cancer MDA-231 cells; settings: nontransfected MDA-231 cells, daily subcutaneous administration; cited from earlier work
[4] = system: human myeloma cell lines (HMCL) LP-1, OPM-2 and JJN-3; test: Proliferation of HMCL, [3H]-thymidine incorporation (three cell lines together); format: cell-based; settings: for inhibition at 500 µM: Homo sapiens, 72 h, all the HMCL
Procedure: (§1) The human myeloma cell lines (HMCL) LP-1 and OPM-2 were obtained from DSM (Braunschweig, Germany). JJN-3 was kindly provided by B Van Campo (VUB, Belgium). Cells are maintained in RPMI 1640 culture medium supplemented with 10% fetal calf serum (FCS), 2mM glutamine, antibiotics (100 IU/ml penicillin and 100 μg/ml streptomycin) and 10 μM 2-β-mercaptoethanol.
(§2) The three HMCL are studied Le., LP-1, OPM-2 and JJN-3. Proliferation assays are performed in 96-well round-bottom microtiter plates at a cell density of 10^5 cells/mL. Cells are incubated for 3 days at 37° C. in a 5% CO2 humidified atmosphere with or without recombinant human IL-6 (rhIL-6) at 5 ng/ml, in the presence (or not) of the bisphosphonate of interest. Then, […] of […] is added during the last 18 hours. [^3H]-thymidine, incorporation is quantified by liquid scintillation spectroscopy.

[5] = system: JJN-3; test: Proliferation of HMCL, [3H]-thymidine incorporation; format: cell-based, human; settings: for concentration at which proliferation returns to the level of the control: JJN-3
Procedure: as §1, §2

[6] = system: LP-1; test: as above; format: cell-based, human; settings: for IC50: Homo sapiens, LP-1, 72 h, 3 days
Procedure: as §1, §2

[7] = system: OPM-2; test: as above; format: cell-based, human; settings: for IC50: Homo sapiens, OPM-2, 72 h, 3 days
Procedure: as §1, §2

[8] = system: BMSC; test: Survival experiments, BMSC apoptosis by APO 2.7 flow cytometry; format: cell-based, human; settings: 10^−4 mol/L, 3-day incubation
Procedure: (§3) BMSC are obtained from 7 patients with MM after long term culture of bone marrow samples. Bone marrow mononuclear cells are isolated by Ficoll-Hypaque density centrifugation. The cells are plated in DMEM supplemented with 10% FCS and allowed to attach for 3 days, after which the medium is renewed. After 2 to 3 weeks of culture, a confluent adherent cell monolayer is obtained and then, after two passages using trypsin/ETA solution, BMSC are recovered for study. Cells are maintained in DMEM supplemented with 10% FCS, 2 mmol/L glutamine, 100 μg/mL streptomycin, 100 U/mL penicillin, and 5. 10^−5 mol/L 2-β-mercaptoethanol.
Adherent BMSC (3×10^5 cells) are plated in 25 cm^2 flasks and are incubated with either pamidronate (APD) or zoledronate, at the following concentrations: 10^−4 and 10^−5 mol/L. A control without bisphosphonate is performed After a 3-day incubation period, cells are washed with PBS and removed from the flasks using trypsin-EDTA for 20 seconds. The percentage of apoptotic cells is determined by flow cytometry using APO 2.7 mAb (Immunotech, Marseilles, France) (ibid.).

[9] = system: constitutive production of IL-6 by BMSC; test: Determination of IL-6 concentrations by ELISA; format: cell-based, human; settings: 48 h
Procedure: as §3
Adherent BMSC (10^4 cells) plated in 96-well plates are preincubated for 24 hours with either pamidronate or zoledronate. The medium is replaced by a fresh one containing 2% FCS and different concentrations of each bisphosphonate: 10^−6, 10^−7, 10^−8, 10^−9, 10^−10, 10^−11 Mol/L of zoledronate and 10^−6, 10^−7, 10^−8, 10^−9, 10^−10 Mol/L of pamidronate respectively. After a 48-hour incubation period, the supernatants are collected and stored at −20° C. until analysis. L6 A production is measured by ELISA (ELISA test concentrations ranging from 10 to 500 pg/mL) (Innotest, Besancon, France). No interference between the bisphosphonates and ELISA is observed in this study (data not shown). Six of the seven BMSC are tested for production of IL-6 in the presence of bisphosphonates.

[10] = system: IL-1β-induced MMP-1 secretion by BMSC; test: Determination of interstitial collagenase (MMP-1) levels by ELISA; format: cell-based, human; settings: IL-1β (10 ng/ml) stimulated, 48 h, mean ± SD
Procedure: as §3
Adherent BMSC (15×10^3 cells) plated in 96-well plates are preincubated for 24 hours with either pamidronate or zoledronate. Then the cells are stimulated by IL-1β (10 ng/ml) in the presence of different concentrations (10^−6, 10^−7, 10^−8 and 10^−9 Mol/L) of each bisphosphonate without FCS. After a 48-hour incubation period, supernatants are collected and stored at −20° C. until analysis. MMP-1 levels are measured by ELISA (Amersham, Les Ulis, France). This assay measures MMP-1 irrespective of its mode of presentation (i.e. free or bound, active or not).

[11] = system: MMP-2 secretion by BMSC; test: Determination of gelatinase A (MMP-2) levels by gelatin substrate gel zymography; format: cell-based, human; settings: 48 h
Procedure: as §3
Adherent BMSC (10^4 cells) plated in 96-well plates are preincubated for 24 hours with either pamidronate or zoledronate. Then the medium is replaced by a fresh one without FCS but in the presence of different concentrations (10^−6, 10^−7, 10^−8, 10^−9 Mol/L) of each bisphosphonate. After a 48-hour incubation period, the supernatants are collected and stored at −20° C. until analysis. MMP-2 production is shown by gelatin substrate gel zymography. The supernatants are mixed with sodium dodecyl sulfate (SDS) sample buffer without reducing agent and then, proteins are separated by SDS-polyacrylamide gel electrophoresis in 7.5% polyacrylamide gels containing gelatin at 1 mg/ml, as previously described by Heussen and Dowdle(1980 Ann. Biochem. 102: 196-202) and adjusted for minigel format. After electrophoresis, SDS is removed from the gels by an incubation in 2.5% Triton X-100 for half an hour at room temperature. The gels are then incubated at 37° C. in a buffer containing 50 mM/L Tris-HCl 5 mM/L CaCl2, pH 7.6 for 24 hours. The gels were stained with Coomassie blue R250 (0.25%). […] The intensity of the gelatinolytic bands is analysed by densitometry. No interference between bisphosphonates and gelatin substrate gel zymography is observed using this assay (data not shown).

[12] = system: LP-1 cells; test: Analysis of cell cycle, propidium iodide flow cytometry; format: cell-based, human; settings: LP-1, 5×10^−4 Mol/L, 4 day incubation; control 36%
Procedure: LP-1 cells (2×10^5 cells) plated in a 24 well-plate are incubated in the presence of 5×10^−4 Mol/L of either pamidronate or zoledronate. A control without bisphosphonate is performed. Cells are recovered after a 4day incubation period and washed. They are then incubated for 40 minutes at 37° C. with a solution of Triton×100 0.1%, Sodium Citrate 0.1%, 5 IU of RNAse and stained with propidium iodide (PI) 50 mg/L: Flow cytometry analysis is performed on a FACSCalibur using a CELLQuest program (Becton Dickinson). Data are gated on the F12-Area venus FL2-Width cytogram to exclude doublets and agregates, and a minimum of 2.5×10^4 gated cells is collected per sample. Analysis of the cell cycle was performed using the Modfit LT for Mac V2.01 program (Verity Software House, Inc). Apoptotic cells were detected as a subdiploid peak as described by Zamai et al. (1993, Cytometry 14: 891-897)

SMILES	production and secretion of MMP-2 by PC-3 ML cells [1]	inhibition at 500 µM ([4]; 5×10^−4 Mol/L, 3 days)	concentration at which proliferation returns to the level of the control [5]	IC50 [6]	IC50 [7]	APO 2.7 stained (apoptotic) BMSC [8]	concentration at which IL-6 production returns to the basal level ([9]; BMSC)	inhibition of MMP-1 secretion by BMSC [10]	MMP-2 upregulation (72 kDa gelatinase activity, densitometry) ([11]; 10^−6 mol/L)	other results
NCCCC(O)(P(=O)(O)O)P(=O)(O)O [alendronate, 4-amino-1-hydroxybutane-1,1-diphosphonic acid]	independently reduced, in part	–	–	–	–	–	–	–	–	establishment of bone metastases [2]: partially blocked
CCCCCN(C)CCC(O)(P(=O)(O)O)P(=O)(O)O [ibandronate, 1-hydroxy-3-(methylpentylamino)-propylidene-bisphosphonic acid]	–	–	–	–	–	–	–	–	–	osteolytic lesions in bone (radiographs) [3]: markedly decreased
NCCC(O)(P(=O)(O)O)P(=O)(O)O [pamidronate, (3-amino-1-hydroxypropylidene) bis-phosphonate]	–	75%	1e-05 mol/L	207 µM	293 µM	97%	10^−11 mol/L	21%±20%	165%±27%	percentage of proliferation, of that of the control ([4]; 5×10^−4 Mol/L, the three cell lines, 3 days): 25%; concentration up to which dose-dependent inhibition of proliferation is observed ([4]; except for JJN-3): 5e-05 mol/L; IC50 ([5]; Homo sapiens, JJN-3, 72 h, 3 days): 107 µM; inhibition of IL-6 production by BMSC ([9]; not proportional to dose, six BMSC samples, p=0.05): 40%±14%
CC(=O)O[C@H]1C(=O)[C@@]2(C)[C@H]([C@H](OC(=O)c3ccccc3)[C@]3(O)C[C@H](OC(=O)[C@H](O)[C@@H](NC(=O)c4ccccc4)c4ccccc4)C(C)=C1C3(C)C)[C@]1(OC(C)=O)CO[C@@H]1C[C@@H]2O [taxol]	independently reduced, in part	–	–	–	–	–	–	–	–	–
O=P(O)(O)C(O)(Cn1ccnc1)P(=O)(O)O [zoledronate, (1-hydroxy-2-(1H-imidazole-1-yl)ethylidene) bisphosphonate]	–	~95%	1e-05 mol/L	193 µM	155 µM	24%	10^−9 mol/L	44%±14%	180%±12% and 205%±7%	concentration at which normal proliferation rate is recovered ([6]; LP-1): 5e-05 mol/L; concentration at which normal proliferation rate is recovered ([7]; OPM-2): 5e-05 mol/L; percentage of cells in S phase [12]: 60%; inhibition at 1 µM ([9]; Homo sapiens, BMSC, 10^−6 mol/L, p=0.05, read-out: maximum inhibition of IL-6 production by BMSC): 60%; MMP-2 upregulation (72 kDa gelatinase activity, densitometry) ([11]; 10^−9 mol/L): 159%±16%
